Assay results: PMC8537953 (Viruses, 2021)

System: SARS-CoV-2
Format: cell-based

CC(N)C12CC3CC(CC(C3)C1)C2 (stereo not shown) [Rimantadine, rimantadine]
% of culture cells infected: ≥ 80%
